Data: patent publication US4585773A, “Isoindolinyl-alkyl-piperazines” (Bristol-Myers Company, priority 1984, dated 1986)
Where two headings read alike, the source gives them in different places.

How the values were obtained:
[1] = system: α blocking activity (norepinephrine); assay: in vivo α blocking activity, norepinephrine (NE) as α-agonist (Table III); parameters: species or system rat; conditions: ED50 after/before drug
Procedure: In this example the compounds of Examples I (modified), II, III, V, VI, VII, VIII, IX and XI were tested in rats for in vivo α blocking activity according to methodology described at page 312 of Deitchman, et al., Journal of Pharmacological Methods, 3, 311-321 (1980). In this test phenylephrine (PE below) or norepinephrine (NE below) was administered as an α-agonist to the rats before and after dosing with the test drug and the average interpolated dose or PE/NE effecting a 50 mm Hg increase in mean arterial blood pressure was determined. Table III below records the results. In such Table, ED50 stands for such average interpolated dose and Average Dose Shift stands for the average ratio of ED50 after drug administration to ED50 before drug administration. The compound of Example I was tested as its monochloride 2-propanolate hydrate, i.e. as C22 H27 ClN4 O4 S.HCl 0.2(CH3)2 CHOH.0.15H2 O in Tests 1-5 and as the 3/4 mole hydrochloride, i.e. C22 H27 ClN 4 O4 S.3/4HCL in Tests 2a and 3a. The route was intravenous except in the case of the runs of Test Nos. 2a, 3, 3a, 26-29 the route was oral.

α2 = assay: in vitro α2 binding, [3H]Clonidine (Table IV); conditions: for IC50: [3H]Clonidine, brain tissue, 50 mM Hepes.KOH, pH 7.4, read-out: α2 Binding IC50
Procedure: In this Example the compounds of Examples I-XI were tested in vitro for α1 and α2 binding. The compound of Example I was tested as its monochloride 2-propanolate hydrate, i.e. as C22 […] CLN4 O4 S .HCl.0.2(CH3)2 CHOH 0.15H2 O. In the testing specific brain tissues were prepared as sources of binding sites. Aliquots of the washed members are incubated with a low concentration of […]. After incubation at suitable temperature, the reaction mixture is treated to separate the membrane-bound radioligand Radioactivity is measured. Linear regression analysis of the probit value for the percent of binding occurring in the presence of varying concentrations of the compound of interest plotted against the concentration of the compound yields concentrations which inhibit 50% specific binding, the IC50. The assay buffer is 50 mM Hepes.KOH, pH 7.4. The ligand is [^3 H]WB-4101 from New England Nuclear for α1 and [^3 H]Clonidine from New England Nuclear for α2. The results are considered against phentolamine methanesulfonate (Reference) which is considered a good α-binder.

[2] = system: DOCA-salt Hypertensive Rat; assay: antihypertensive activity, DOCA-salt Hypertensive Rat (Table II); format: in vivo; conditions: for ΔBP 4 hours / ΔHR 4 hours: DOCA
Procedure: DOCA-salt Hypertensive Rat
Male rats initially weighing 80-100 g, are made hypertensive by surgically implanting two 50 mg pellets of deoxycorticosterone acetate (DOCA) under the skin of the abdomen of each rat and providing 1% saline ad libitum. After three weeks, the 1% saline is replaced with distilled water. One week later, animals are anesthetized with methoxyflurane and a catheter advanced into the aorta via the left common corotid artery to record mean arterial blood pressure (MABP) and heart rate. The heparin-filled catheter is passed beneath the skin and exteriorized behind the head. Two days later, MABP and heart rate are determined before and four hours after oral administration of vehicle (0.25% Methocel in 0.9% saline) or test compound suspended in vehicle at a dose volume equivalent to 5 ml/kg.
Testing was carried out on the compounds of Examples I-XII for antihypertensive activity. In the case of all the compounds testing was carried out on the Spontaneously Hypertensive rat as described hereinbefore. In the case of the compounds of Examples I-IV testing was also carried out on the DOCA-salt Hypertensive Rat. The compound of Example I was tested as its monochloride 2-propanolate hydrate, i.e. as C22 H27 ClN4 O4 S.HCl.0.2(CH3)2 CHOH.0.15H2 O in Tests 1-5; and as the 3/4 mole hydrochloride, i.e. C22 H27 ClN4 O4 S: 3/4 HCl in Tests 3a, 4a, 5a-5d. Test results are set forth in Table II below wherein SHR stands for Spontaneously Hypertensive rat, DOCA stands for DOCA-salt Hypertensive Rat, ΔBP stands for the change in systolic blood pressure in mm Hg, ΔHR stands for the change in mean heart rate in beats per minute and the times set forth are the times after dosing. A peak change in ΔBP of more than 20 is considered as indicating activity.

[3] = 0.3 mg/kg oral, as 3/4 mole hydrochloride
[4] = 3.0 mg/kg oral, as 3/4 mole hydrochloride
[5] = 30 mg/kg oral, as 3/4 mole hydrochloride
[6] = 100 mg/kg oral, as 3/4 mole hydrochloride

Row | Compound | Average Dose Shift ([1]; dose 0.3, intravenous) | Average Dose Shift ([1]; dose 1.0, intravenous) | α2 binding activity (in words) (α2) | IC50 (α2) [nM] | α2 binding activity (in words) (α2; listed as MJ 15037) | antihypertensive activity (in words) ([2]; DOCA-hypertensive rat) | ΔBP 4 hours [2, 3] [mm Hg] | ΔHR 4 hours [2, 3] [beats per minute] | ΔBP 4 hours [2, 4] [mm Hg] | ΔHR 4 hours [2, 4] [beats per minute] | ΔBP 4 hours ([2]; 30 mg/kg oral) [mm Hg] | ΔHR 4 hours ([2]; 30 mg/kg oral) [beats per minute] | ΔBP 4 hours [2, 5] [mm Hg] | ΔHR 4 hours [2, 5] [beats per minute] | ΔBP 4 hours [2, 6] [mm Hg] | ΔHR 4 hours [2, 6] [beats per minute]
1 | COc1ccccc1N1CCN(CCCN2Cc3cc(Cl)c(S(N)(=O)=O)cc3C2=O)CC1 [Example I, 6-chloro-2,3-dihydro-2-[3-[4-(2-methoxyphenyl)-1-piperazinyl]propyl]-3-oxo-1H-isoindole-5-sulfonamide] | 3 ± 0.3 | 11 ± 1 | α2 binding activity | 555 | demonstrates activity in binding both α1 and α2 sites | demonstrates activity in the DOCA-hypertensive rat | -14 ± 5 | -8 ± 20 | -15 ± 6 | -6 ± 24 | -49 ± 9 | 59 ± 28 | -53 ± 9 | 53 ± 26 | -75 ± 3 | 23 ± 32
2 | COc1ccccc1N1CCN(CCN2Cc3cc(Cl)c(S(N)(=O)=O)cc3C2=O)CC1 [Example III, 6-Chloro-2,3-dihydro-2-[2-[4-(2-methoxyphenyl)-1-piperazinyl]ethyl]-3-oxo-1H-isoindole-5-sulfonamide] | – | – | α2 binding activity | 806 | – | – | – | – | – | – | -62 ± 13 | 63 ± 32 | – | – | – | –
